These results are taken from PubChem BioAssay (NCI).

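Tested at 5 concentrations; 48 h exposure; 96-well plates; endpoints linearly interpolated, else capped at highest concentration. The concentration for full growth arrest is given as TGI.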 Bounds are passed on as bounds.

Some test systems named below: SF-295 CNS; CAKI-1 renal; SK-MEL-5 melanoma; NCI/ADR-RES ovarian; HCT-15 colon; HOP-62 NSCLC; ACHN renal; NCI-H460 lung; SF-539 CNS.
Common to all, as to assay: NCI tumour cell line growth inhibition, 48 h

Take `CC1=NNC(=O)C1C1C(=O)NN=C(c2c[nH]c3ccccc23)C1Br` (centres undefined): the TGI in the test with SF-295 CNS was 54.7 µM; in the test on CAKI-1 renal, above 100 µM; in the test with SK-MEL-5 melanoma, above 100 µM; in the test with NCI/ADR-RES ovarian, above 100 µM; with HCT-15 colon, above 100 µM; in the test with HOP-62 NSCLC, above 100 µM. Moreover, the TGI with ACHN renal, in the test with NCI-H460 lung and in the test on SF-539 CNS was above 100 µM throughout.
As to `COc1ccc(N2C(=O)C3c4[nH]c5ccc(OCc6ccccc6)cc5c4C4CCC(c5ccccc5)CC4C3C2=O)cc1` (centres undefined), the TGI was 36.5 µM in the test with SF-295 CNS; 25.8 µM with CAKI-1 renal; above 93.7 µM in the test with SK-MEL-5 melanoma; above 100 µM with NCI/ADR-RES ovarian; above 84 µM with HCT-15 colon; 10.2 µM with HOP-62 NSCLC. In addition, the TGI in the test on ACHN renal stood at 41.5 µM; with NCI-H460 lung it was 12.3 µM; with SF-539 CNS, 7.17 µM.
As for `CCOC(=O)c1c(C)n(Cc2ccc(Cl)cc2Cl)c2c1cc(O)c1[nH]c3c(c12)CCCC3`, the TGI is 97.2 µM in the test with SF-295 CNS; 56.4 µM in the test with CAKI-1 renal; 44.5 µM in the test with SK-MEL-5 melanoma; 43.4 µM in the test on NCI/ADR-RES ovarian; above 100 µM with HCT-15 colon; 93.7 µM in the test on HOP-62 NSCLC. The results for the TGI in the test with ACHN renal, in the test with NCI-H460 lung and with SF-539 CNS were 61.2 µM, 89.9 µM and 56.9 µM, respectively.
For `OC1[C@@H]2[C@@H](O)CCCN2C[C@@H](O)[C@H]1O` (some centres undefined), the TGI in the test with SF-295 CNS, with CAKI-1 renal, in the test on SK-MEL-5 melanoma, in the test on NCI/ADR-RES ovarian, in the test on HCT-15 colon and in the test on HOP-62 NSCLC was above 100 µM each time. For the same molecule, the TGI in the test with ACHN renal, with NCI-H460 lung and in the test with SF-539 CNS was above 100 µM each time.
As for `Cc1ccc2nc(SCC(=O)N=Nc3c(O)[nH]c4ccccc34)n(-c3ccccc3)c(=O)c2c1`, the TGI in the test on SF-295 CNS was determined as 29.5 µM; with CAKI-1 renal, 43.3 µM; in the test with SK-MEL-5 melanoma, 29.1 µM; in the test with NCI/ADR-RES ovarian it was 26.1 µM; in the test with HCT-15 colon it was 40.5 µM; in the test on HOP-62 NSCLC, 24.6 µM. Moreover, the TGI came to 26.7 µM in the test with ACHN renal, 29 µM with NCI-H460 lung and 19 µM in the test with SF-539 CNS.
For the molecule `CC12CCC(CC(=O)/C1=C(/Br)I)C2(C)C` (centres undefined), the TGI came out at 3.03 µM in the test on SF-295 CNS; 31.2 µM in the test with CAKI-1 renal; 23.6 µM in the test on SK-MEL-5 melanoma; 29.8 µM in the test on NCI/ADR-RES ovarian; 31.2 µM with HCT-15 colon; 32.1 µM in the test on HOP-62 NSCLC. In addition, the TGI with ACHN renal was 32.1 µM; in the test on NCI-H460 lung, above 100 µM; in the test on SF-539 CNS, 29.2 µM.
For `O=C(Nc1ccccc1F)c1cc2ccc(O)cc2oc1=Nc1cccc(F)c1`, the TGI turned out to be 18.5 µM in the test on SF-295 CNS; 40.6 µM in the test with CAKI-1 renal; 18 µM in the test on SK-MEL-5 melanoma; 43 µM in the test with NCI/ADR-RES ovarian; 24.4 µM with HCT-15 colon; 38.6 µM with HOP-62 NSCLC. Also, the TGI in the test on ACHN renal came out at 29.5 µM; in the test on NCI-H460 lung, 57.3 µM; in the test with SF-539 CNS, 42.7 µM.
As to `O=C1C=CC(=O)c2c1ccc1c3ccccc3n(Cc3ccc([N+](=O)[O-])cc3)c21`, the TGI in the test with SF-295 CNS, with CAKI-1 renal, with SK-MEL-5 melanoma, in the test with NCI/ADR-RES ovarian, with HCT-15 colon and in the test on HOP-62 NSCLC was above 100 µM throughout. For the same molecule, the TGI in the test on ACHN renal, in the test on NCI-H460 lung and in the test on SF-539 CNS was above 100 µM throughout.
On to `CCNCCNC(=O)c1ccc(I)cc1`, for which the TGI with CAKI-1 renal, in the test with SK-MEL-5 melanoma, in the test with NCI/ADR-RES ovarian, with HCT-15 colon, with ACHN renal and in the test with NCI-H460 lung was above 100 µM in each case. For the same molecule, the TGI in the test on SF-539 CNS was above 100 µM.
As to `O=c1[nH]c(Nc2ccccc2)nc2c1ncn2CC(O)CSCCO` (centres undefined), the TGI in the test with SF-295 CNS, with CAKI-1 renal, in the test with SK-MEL-5 melanoma, in the test with NCI/ADR-RES ovarian, with HCT-15 colon and in the test with HOP-62 NSCLC was above 100 µM in each case. Further, the TGI with ACHN renal, in the test on NCI-H460 lung and in the test on SF-539 CNS was above 100 µM each time.
With `CCN(CCCOc1ccccc1)CCN(CC)CCCOc1ccccc1`, the TGI was 41 µM in the test on SF-295 CNS; 34 µM with CAKI-1 renal; 5.44 µM in the test with SK-MEL-5 melanoma; 46.8 µM in the test with NCI/ADR-RES ovarian; 30 µM in the test with HCT-15 colon; 45.5 µM in the test on HOP-62 NSCLC. The values for the TGI in the test on ACHN renal, with NCI-H460 lung and in the test on SF-539 CNS were 31.5 µM, 34.9 µM and 24.7 µM, respectively.
As for `O=C1[C@H](O)[C@@H]2C(O)O[C@H]3[C@@H]2N1C[C@H]3[Si](c1ccccc1)(c1ccccc1)c1ccccc1` (some centres undefined), the TGI in the test with SF-295 CNS, in the test on CAKI-1 renal, in the test on SK-MEL-5 melanoma, with NCI/ADR-RES ovarian, in the test on HCT-15 colon and in the test on HOP-62 NSCLC was above 100 µM throughout. Also, the TGI in the test with ACHN renal, with NCI-H460 lung and in the test on SF-539 CNS was above 100 µM throughout.
For `COc1cccc(N2C(=O)CSC2c2cccc(Oc3ccccc3)c2)c1` (centres undefined), the TGI in the test with SF-295 CNS is above 100 µM; in the test with CAKI-1 renal, 14.3 µM; in the test on SK-MEL-5 melanoma, 16.9 µM; in the test with NCI/ADR-RES ovarian, 40.4 µM; with HCT-15 colon, 76.9 µM; with HOP-62 NSCLC, above 100 µM. In addition, the TGI in the test on ACHN renal came out at 41 µM; in the test on NCI-H460 lung it was 12.3 µM; in the test on SF-539 CNS it was 15.9 µM.
With `O=[N+]([O-])c1ccccc1OCCOc1ccccc1[N+](=O)[O-]`, the TGI in the test with SF-295 CNS, with CAKI-1 renal, in the test with SK-MEL-5 melanoma, in the test on NCI/ADR-RES ovarian, in the test on HCT-15 colon and in the test on HOP-62 NSCLC was above 100 µM throughout. In addition, the TGI in the test on ACHN renal, with NCI-H460 lung and in the test on SF-539 CNS was above 100 µM in each case.
